Columns and labels:
COX-1 = target: T1, COX-1 (Homo sapiens, UniProt P23219); assay: Assay for the COX-1 inhibitory activity using U-937 (PGE2 inhibition); assay type: cell-based; conditions: test compound 1 μM, U-937 human lymphoma cells, arachidonic acid substrate, PGE2 quantified; for inhibition at 1 µM: read-out: Cyclooxygenase (COX) Inhibition (%) COX-1 (1 μM)
T1 construct: host or cells: U-937 human lymphoma cells
Procedure: The collected cells were diluted with HBSS (×1, Hank's balanced salt solution) to a concentration of 1×10^6 cells/ml. 1 ml of the dilute cell solution was placed into each well of 12-well plates. 5 μl of 1 μM solution of a test compound in DMSO and 5 μl of DMSO as a control were added to the wells. The wells were incubated in CO2 incubator at 37° C. for 15 minutes. Separately, 10 mM stock solution of arachidonic acid in ethanol was diluted ten times in ethanol to prepare 1 mM solution of arachidonic acid. Arachidonic acid acts as a substrate. 10 μl of the 1 mM solution of arachidonic acid was added to each well and incubated at CO2 incubator at 37° C. for 30 minutes. The cell solution of each well was placed in a centrifuge test tube and centrifuged at 10,000 rpm at 4° C. for 5 minutes. The concentration of PGE2 in the collected cells and the supernatant was quantified by means of a monoclonal kit (Cayman Chemicals). The percentages of PGE2 inhibition in a group of the test compound-treated cells in relation to a group of the DMSO-treated cells were calculated. Based on the calculated values, the COX-1 inhibitory activities were evaluated.
(§1) The percentages of the COX inhibition were calculated according to the following equation: % Inhibition=(concentration of PGE2 in test compound-untreated sample−concentration of PGE2 in test compound-treated sample)/(concentration of PGE2 in test compound-untreated sample)×100

COX-2 = target: T2, COX-2 (Mus musculus, UniProt Q05769); assay: Assay for the COX-2 inhibitory activity using Raw 264.7 cell line (PGE2 inhibition); assay type: cell-based; conditions: test compound 30 nM, RAW 264.7 cells, aspirin pre-treated, interferon + LPS 18 hours, PGE2 by EIA; for inhibition at 0.03 µM: RAW264.7, read-out: Cyclooxygenase (COX) Inhibition (%) COX-2 (30 nM)
T2 construct: host or cells: RAW 264.7 cells, pre-treated with aspirin, then induced with interferon and LPS
T2 sequence (Q05769 18-604): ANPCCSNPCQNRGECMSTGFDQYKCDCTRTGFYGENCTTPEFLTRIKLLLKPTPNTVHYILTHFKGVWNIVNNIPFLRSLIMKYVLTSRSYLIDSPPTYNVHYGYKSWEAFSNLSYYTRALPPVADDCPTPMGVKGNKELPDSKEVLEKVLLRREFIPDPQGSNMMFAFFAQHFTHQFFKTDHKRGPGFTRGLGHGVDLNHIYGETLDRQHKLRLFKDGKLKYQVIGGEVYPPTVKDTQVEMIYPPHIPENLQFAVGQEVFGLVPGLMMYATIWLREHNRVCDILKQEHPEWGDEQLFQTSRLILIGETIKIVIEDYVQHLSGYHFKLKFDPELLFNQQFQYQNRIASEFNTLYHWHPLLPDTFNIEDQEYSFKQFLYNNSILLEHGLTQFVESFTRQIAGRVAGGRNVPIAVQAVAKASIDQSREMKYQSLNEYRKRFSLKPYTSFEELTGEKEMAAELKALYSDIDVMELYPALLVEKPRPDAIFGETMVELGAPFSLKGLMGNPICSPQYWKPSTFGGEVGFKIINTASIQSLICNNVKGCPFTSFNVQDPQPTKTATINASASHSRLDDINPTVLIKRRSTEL
Procedure: Each well was treated with 250 μM of aspirin and incubated at 37° C. for 2 hours. After the culture media were replaced with new culture media, the new culture media were treated with a test compound (30 nM) and incubated for 30 minutes. Then, each well was treated with interferon ? (100 units/ml) and lipopolysaccharide (LPS, 100 ng/ml) and incubated for 18 hours. The culture media were transferred to other test tubes. The concentration of PGE2 was quantified by means of the EIA kit (Cayman Chemicals).
as §1

T1 sequence (P23219 24-599): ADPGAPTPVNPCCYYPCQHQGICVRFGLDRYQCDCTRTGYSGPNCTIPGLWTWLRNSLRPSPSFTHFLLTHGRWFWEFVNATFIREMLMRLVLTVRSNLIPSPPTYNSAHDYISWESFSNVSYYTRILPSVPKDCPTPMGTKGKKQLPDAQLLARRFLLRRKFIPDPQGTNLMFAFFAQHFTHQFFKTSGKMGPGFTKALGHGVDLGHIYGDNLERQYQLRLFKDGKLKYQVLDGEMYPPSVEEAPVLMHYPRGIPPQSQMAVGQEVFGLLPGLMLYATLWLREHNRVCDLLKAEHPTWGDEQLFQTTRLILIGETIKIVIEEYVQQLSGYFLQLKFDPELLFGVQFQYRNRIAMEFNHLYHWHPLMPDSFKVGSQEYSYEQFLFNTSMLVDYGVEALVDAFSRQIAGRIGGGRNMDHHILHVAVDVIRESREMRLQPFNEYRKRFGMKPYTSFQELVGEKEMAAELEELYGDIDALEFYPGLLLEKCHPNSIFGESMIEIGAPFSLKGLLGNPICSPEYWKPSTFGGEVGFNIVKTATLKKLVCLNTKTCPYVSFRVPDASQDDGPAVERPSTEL

| SMILES | melting point [°C] | inhibition at 1 µM (COX-1) [%] | inhibition at 0.03 µM (COX-2) [%] | Cyclooxygenase (COX) Inhibition (%) COX-1 (1 μM) (COX-1) [%] | Cyclooxygenase (COX) Inhibition (%) COX-2 (30 nM) (COX-2) [%] |
| --- | --- | --- | --- | --- | --- |
| CS(=O)(=O)c1ccc(-c2ssc(=S)c2-c2ccc(Cl)cc2Cl)cc1 [Example 58, 4-(2,4-dichlorophenyl)-5-(4-methanesulfonylphenyl)-[1,2]dithiol-3-thione] | 176 to 177 | 24.2 | 20.1 |  |  |
| CCOc1ccc(-c2c(-c3ccc(S(C)(=O)=O)cc3)ssc2=S)cc1 [Example 39, 4-(4-ethoxyphenyl)-5-(4-methanesulfonylphenyl)-[1,2]dithiol-3-thione] | 210 to 212 | 15 | 36.6 |  |  |
| COc1ccc(-c2c(-c3ccc(F)c(F)c3)ssc2=S)cc1 [Example 75, 5-(3,4-difluorophenyl)-4-(4-methoxyphenyl)-[1,2]dithiol-3-thione] | 143 to 145 | 26.6 | 19.6 |  |  |
| CS(=O)(=O)c1ccc(-c2ssc(=S)c2-c2ccc3ccccc3c2)cc1 [Example 65, 5-(4-methanesulfonylphenyl)-4-(naphthalene-2-yl)-[1,2]dithiol-3-thione] |  | 22.6 | 20.1 |  |  |
| CS(=O)(=O)c1ccc(-c2[nH][nH]c(=S)c2-c2ccc(Cl)cc2)cc1 [Example 82, 4-(4-chlorophenyl)-5-(4-methanesulfonylphenyl)-1,2-dihydropyrazole-3-thione] | 211 to 213 | 24.3 | 22.2 |  |  |
| CCOc1ccc(-c2c(-c3ccc(S(C)(=O)=O)cc3Cl)ssc2=S)cc1 [Example 70, 5-(2-chloro-4-methanesulfonylphenyl)-4-(4-ethoxyphenyl)-[1,2]dithiol-3-thione] | 190 to 191 | 17.5 | 36 |  |  |
| CS(=O)(=O)c1ccc(-c2ssc(=S)c2-c2cccnc2)cc1 [Example 48, 5-(4-methanesulfonylphenyl)-4-(pyridine-3-yl)-[1,2]dithiol-3-thione] |  | 23.6 | 24.2 |  |  |
| CS(=O)(=O)c1ccc(-c2ssc(=S)c2-c2ccccc2Cl)cc1 [Example 57, 4-(2-chlorophenyl)-5-(4-methanesulfonylphenyl)-[1,2]dithiol-3-thione] | 161 to 162 | 20.7 | 21.1 |  |  |
| CS(=O)(=O)c1ccc(-c2ssc(=S)c2-c2ccc(Cl)c(Cl)c2)cc1 [Example 46, 4-(3,4-dichlorophenyl)-5-(4-methanesulfonylphenyl)-[1,2]dithiol-3-thione] |  | 24.6 | 21 |  |  |
| COc1cccc(-c2c(-c3ccc(S(C)(=O)=O)cc3)ssc2=S)c1 [Example 53, 5-(4-methanesulfonylphenyl)-4-(3-methoxyphenyl)-[1,2]dithiol-3-thione] | 212 to 213 | 26.7 | 21.6 |  |  |
| CS(=O)(=O)c1ccc(-c2ssc(=S)c2-c2ccccc2Br)cc1 [Example 61, 4-(2-bromophenyl)-5-(4-methanesulfonylphenyl)-[1,2]dithiol-3-thione] | 179 to 180 | 23.3 | 20.1 |  |  |
| Cc1ccc(-c2c(-c3ccc(S(C)(=O)=O)cc3)ssc2=S)cc1 [Example 41, 5-(4-methanesulfonylphenyl)-4-p-toryl-[1,2]dithiol-3-thione] |  |  |  | 20.1 | 24.5 |
| COc1ccc(OC)c(-c2c(-c3ccc(S(C)(=O)=O)cc3)ssc2=S)c1 [Example 51, 4-(2,5-dimethoxyphenyl)-5-(4-methanesulfonylphenyl)-[1,2]dithiol-3-thione] | 176 to 177 | 27.6 | 19.8 |  |  |
| CS(=O)(=O)c1ccc(-c2[nH][nH]c(=S)c2-c2ccc(Cl)c(Cl)c2)cc1 [Example 81, 4-(3,4-dichlorophenyl)-5-(4-methanesulfonylphenyl)-1,2-dihydropyrazole-3-thione] | 192 to 193 | 24.9 | 24.6 |  |  |
| CS(=O)(=O)c1ccc(-c2ssc(=S)c2-c2ccc(F)cc2Cl)cc1 [Example 59, 4-(2-chloro-4-fluorophenyl)-5-(4-methanesulfonylphenyl)-[1,2]dithiol-3-thione] | 184 to 185 | 23.2 | 19.7 |  |  |
| COc1ccc(-c2c(-c3ccc(S(C)(=O)=O)cc3Cl)ssc2=S)cc1 [Example 73, 5-(2-chloro-4-methanesulfonylphenyl)-4-(4-methoxyphenyl)-[1,2]dithiol-3-thione] | 192 to 193 | 25.6 | 20.1 |  |  |
| CS(=O)(=O)c1ccc(-c2ssc(=S)c2-c2ccc(F)c(F)c2)cc1 [Example 64, 4-(3,4-difluorophenyl)-5-(4-methanesulfonylphenyl)-[1,2]dithiol-3-thione] | 193 to 194 | 21.6 | 19.8 |  |  |
| Cc1ccc(-c2c(-c3ccc(S(C)(=O)=O)cc3Cl)ssc2=S)cc1 [Example 71, 5-(2-chloro-4-methanesulfonylphenyl)-4-p-toryl-[1,2]dithiol-3-thione] |  |  |  | 20.3 | 21.0 |
| CCCOc1ccc(-c2c(-c3ccc(S(C)(=O)=O)cc3)ssc2=S)cc1 [Example 68, 5-(4-methanesulfonylphenyl)-4-(4-propoxyphenyl)-[1,2]dithiol-3-thione] | 177 to 178 | 25.5 | 22.7 |  |  |
| CS(=O)(=O)c1ccc(-c2ssc(=S)c2-c2ccccn2)cc1 [Example 49, 5-(4-methanesulfonylphenyl)-4-(pyridine-2-yl)-[1,2]dithiol-3-thione] |  | 28 | 19.5 |  |  |
| Cc1ccc(-c2c(-c3ccc(S(C)(=O)=O)cc3)[nH][nH]c2=S)cc1 [Example 80, 5-(4-methanesulfonylphenyl)-4-p-toryl-[1,2]dihydropyrazole-3-thione] |  |  |  | 25.6 | 23.2 |
| CS(=O)(=O)c1ccc(-c2ssc(=S)c2-c2c(F)c(F)c(F)c(F)c2F)cc1 [Example 66, 5-(4-methanesulfonylphenyl)-4-pentafluorophenyl-[1,2]dithiol-3-thione] |  |  |  | 28.2 | 19.2 |
| Cc1ccc(-c2c(-c3ccc(S(C)(=O)=O)c(F)c3)ssc2=S)cc1 [Example 77, 5-(3-fluoro-4-methanesulfonylphenyl)-4-p-toryl-[1,2]dithiol-3-thione] |  |  |  | 15.2 | 31.5 |
| COc1ccc(-c2c(-c3ccc(S(C)(=O)=O)c(F)c3)ssc2=S)cc1 [Example 78, 5-(3-fluoro-4-methanesulfonylphenyl)-4-(4-methoxyphenyl)-[1,2]dithiol-3-thione] |  | 18.5 | 32.5 |  |  |
| Cc1ccccc1-c1c(-c2ccc(S(C)(=O)=O)cc2)ssc1=S [Example 56, 5-(4-methanesulfonylphenyl)-4-o-toryl-[1,2]dithiol-3-thione] |  |  |  | 20.6 | 25.6 |
